Measurements from patent US9115072B2, “Compounds and method for reducing uric acid” (WELLSTAT THERAPEUTICS CORPORATION, priority 2008, dated 2015).
“And” between values parts separate entries of the source, which are not always exact repeats. Equal entries are not always repeated.

Test: Mouse oral single-dose pharmacokinetic study
Assay type: in vivo
Conditions: for Compound EH Concentration in mouse PLASMA: individual mice; for Compound EH concentr., mean: Data from Sigma Stat
Procedure: • 1. Mice received single oral gavage of Compound EH, 100 mg/kg, and plasma was collected at certain times. • 2. Plasma was stored at −80° C. until the day of analysis. • 3. Samples were thawed on 37° C. bath for 5 min and vortexed at top speed for 10 sec. • 4. Mouse plasma, 0.1 mL was mixed with 0.2 mL Acetonitrile, vortexed 1 min, spun down 14000 rpm, 17000 g, at 4° C., for 25 min. • 5. Supernatants were filtered through 0.45 micron, 4 mm, PTFE membrane syringe filter (Phenomenex #AF0-3102-52), and 15 microL were injected and resolved on Luna 3 micron, 100 A pore, C8(2), 150×3 mm, reverse phase column (Phenomenex#00E-4248-YO, SN#259151-7) in 50 min linear gradient from 40% to 69% of (0.1% Formic Acid, 89.9% Acetonitrile, 10% Methanol) at 0.25 mL/min, 100 bar, 37° C. column temperature, method 406975M1, Sequence 0205-09A, Agilent 1100 LC-MS.
All samples were run in duplicate, 210 nm and 230 nm Absorbances, Negative and Positive ionization spectrograms recorded.
• Step 1. Plasma from “Vehicle” animals (pooled), 0.19 mL, was mixed with 0.01 mL 20× stock of Compound EH in Methanol to make 500 microM, 250 microM, 125 microM, . . . , concentrations of Compound EH in plasma. • For example: 190 microL plasma+10 microL of 10 mM Compound EH in methanol=0.2 mL plasma with 500 microM Compound EH. • Step 2. Samples from step 1 were vortexed for 10 sec at top speed. • Step 3. 0.4 mL of acetonitrile was added to all samples from Step 2, and all vials were vortexed at top speed for 1 min • Step 4. All samples from step 3 were spun down 14000 rpm, 17000 g, at 4° C., for 25 min. • Step 5. Supernatants were filtered through 0.45 micron, 4 mm, PTFE membrane syringe filter (Phenomenex #AF0-3102-52), 15 microL were injected and resolved on Luna 3 micron, 100 A pore, C8(2), 150×3 mm, reverse phase column

Cc1ccc(CC(=O)O)cc1OCc1c(C)cccc1C [Compound EH, 2-(3-(2,6-Dimethylbenzyloxy)-4-methylphenyl)acetic acid]
Compound EH Concentration in mouse PLASMA (100 mg/kg single oral gavage, bleed time 0.5 HR, 100 mg/kg): 430 µM and 342 µM and 523 µM
Compound EH Concentration in mouse PLASMA (100 mg/kg single oral gavage, bleed time 1 HR, 100 mg/kg): 467 µM and 447 µM and 406 µM
Compound EH Concentration in mouse PLASMA (100 mg/kg single oral gavage, bleed time 2 HR, 100 mg/kg): 178 µM and 238 µM and 241 µM
Compound EH Concentration in mouse PLASMA (100 mg/kg single oral gavage, bleed time 4 HR, 100 mg/kg): 148 µM and 154 µM and 134 µM
Compound EH Concentration in mouse PLASMA (100 mg/kg single oral gavage, bleed time 6 HR, 100 mg/kg): 93 µM and 268 µM and 231 µM
Compound EH Concentration in mouse PLASMA (100 mg/kg single oral gavage, bleed time 8 HR, 100 mg/kg): 95 µM and 147 µM and 187 µM
Compound EH Concentration in mouse PLASMA (100 mg/kg single oral gavage, bleed time 12 HR, 100 mg/kg): 79 µM and 36 µM and 74 µM
Compound EH Concentration in mouse PLASMA (100 mg/kg single oral gavage, bleed time 16 HR, 100 mg/kg): 25 µM and 61 µM
Compound EH Concentration in mouse PLASMA (100 mg/kg single oral gavage, bleed time 24 HR, 100 mg/kg): 40 µM and 26 µM and 0.74 µM
Compound EH Concentration in mouse PLASMA (100 mg/kg single oral gavage, bleed time 48 HR): 0 µM
Compound EH concentr., mean (mouse plasma, 100 mg/kg oral, time bleed 0 HR): 0 µM
Compound EH concentr., mean (mouse plasma, 100 mg/kg oral, time bleed 0.5 HR): 431.7 µM
Compound EH concentr., mean (mouse plasma, 100 mg/kg oral, time bleed 1 HR): 440 µM
Compound EH concentr., mean (mouse plasma, 100 mg/kg oral, time bleed 2 HR): 219 µM
Compound EH concentr., mean (mouse plasma, 100 mg/kg oral, time bleed 4 HR): 145.3 µM
Compound EH concentr., mean (mouse plasma, 100 mg/kg oral, time bleed 6 HR): 197.3 µM
Compound EH concentr., mean (mouse plasma, 100 mg/kg oral, time bleed 8 HR): 143 µM
Compound EH concentr., mean (mouse plasma, 100 mg/kg oral, time bleed 12 HR): 63 µM
Compound EH concentr., mean (mouse plasma, 100 mg/kg oral, time bleed 16 HR): 43 µM
Compound EH concentr., mean (mouse plasma, 100 mg/kg oral, time bleed 24 HR): 22.247 µM
Compound EH concentr., mean (mouse plasma, 100 mg/kg oral, time bleed 48 HR): 0 µM
Cmax (mouse plasma, 100 mg/kg single oral gavage): 440 µM
concentration at 0 h (mouse, plasma, 100 mg/kg oral, Time 0 HR, Table 13, read-out: Cpd. EH (mouse plasma concentration)): 0 nM
concentration at 0.5 h (mouse, plasma, 100 mg/kg oral, Time 0.5 HR, Table 13, read-out: Cpd. EH (mouse plasma concentration)): 432 µM
concentration at 1 h (mouse, plasma, 100 mg/kg oral, Time 1 HR, Table 13, read-out: Cpd. EH (mouse plasma concentration)): 440 µM
concentration at 2 h (mouse, plasma, 100 mg/kg oral, Time 2 HR, Table 13, read-out: Cpd. EH (mouse plasma concentration)): 219 µM
concentration at 4 h (mouse, plasma, 100 mg/kg oral, Time 4 HR, Table 13, read-out: Cpd. EH (mouse plasma concentration)): 145 µM
concentration at 6 h (mouse, plasma, 100 mg/kg oral, Time 6 HR, Table 13, read-out: Cpd. EH (mouse plasma concentration)): 197 µM
concentration at 8 h (mouse, plasma, 100 mg/kg oral, Time 8 HR, Table 13, read-out: Cpd. EH (mouse plasma concentration)): 143 µM
concentration at 12 h (mouse, plasma, 100 mg/kg oral, Time 12 HR, Table 13, read-out: Cpd. EH (mouse plasma concentration)): 63 µM
concentration at 16 h (mouse, plasma, 100 mg/kg oral, Time 16 HR, Table 13, read-out: Cpd. EH (mouse plasma concentration)): 43 µM
concentration at 24 h (mouse, plasma, 100 mg/kg oral, Time 24 HR, Table 13, read-out: Cpd. EH (mouse plasma concentration)): 22 µM
concentration at 48 h (mouse, plasma, 100 mg/kg oral, Time 48 HR, Table 13, read-out: Cpd. EH (mouse plasma concentration)): 0 nM
